# Calls of active or inactive are those of the source. The calls are words filed in the database; no cut-off is given here.
# Assays:
# [1] = target: Bromodomain-containing protein 4 (Homo sapiens, UniProt O60885); assay: Inhibition of BRD4 (unknown origin) by HTRF analysis
# [2] = target: T1, Histone-lysine N-methyltransferase EZH2 (Homo sapiens, UniProt Q15910); assay: Inhibition of EZH2 (unknown origin) by radiometric assay
# Target sequence in this assay (Q15910 whole entry): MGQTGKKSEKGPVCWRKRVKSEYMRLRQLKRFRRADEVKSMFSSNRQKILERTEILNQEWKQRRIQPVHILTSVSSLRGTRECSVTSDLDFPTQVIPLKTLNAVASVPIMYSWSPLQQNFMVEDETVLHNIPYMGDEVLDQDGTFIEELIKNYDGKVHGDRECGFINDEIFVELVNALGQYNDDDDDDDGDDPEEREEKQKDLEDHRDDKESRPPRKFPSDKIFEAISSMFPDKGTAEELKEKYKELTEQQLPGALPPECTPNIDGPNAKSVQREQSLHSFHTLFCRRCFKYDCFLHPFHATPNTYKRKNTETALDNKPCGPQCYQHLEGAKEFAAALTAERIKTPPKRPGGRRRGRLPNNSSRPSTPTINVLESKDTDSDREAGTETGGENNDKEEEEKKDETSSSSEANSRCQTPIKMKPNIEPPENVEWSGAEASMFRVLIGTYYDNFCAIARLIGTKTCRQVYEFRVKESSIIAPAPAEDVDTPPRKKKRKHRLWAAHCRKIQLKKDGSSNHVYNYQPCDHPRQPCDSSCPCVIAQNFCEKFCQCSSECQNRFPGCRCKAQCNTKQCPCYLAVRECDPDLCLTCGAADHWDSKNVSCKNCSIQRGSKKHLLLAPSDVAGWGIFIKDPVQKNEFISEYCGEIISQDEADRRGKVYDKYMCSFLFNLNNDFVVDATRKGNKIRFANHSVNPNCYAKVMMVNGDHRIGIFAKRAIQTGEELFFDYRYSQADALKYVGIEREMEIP
# BXPC-3 [3] = assay: Induction of apoptosis in human BXPC-3 cells assessed as viable cells at 5 uM incubated for 48 hrs by Annexin V-FITC/PI staining based flow cytometric analysis (reference value: 90.70%); format: functional; conditions: read-out: Activity
# Mus musculus [4] = assay: In vivo inhibition of EZH2 in Balb/c nude mouse xenografted with human BXPC-3 cells assessed as increase in H3K27ac level in tumor at 60 mg/kg, ip administered daily for 30 days by IHC analysis; format: functional, organism-based; conditions: time 30.0 day
# [5] = target: T1, Histone-lysine N-methyltransferase EZH2; assay: Inhibition of EZH2 in human MDA-MB-231 cells assessed as increase in H3K27ac level at 5 uM by fluorescence based analysis; format: cell-based
# Target sequence in this assay (Q15910 whole entry, looked up): as the sequence (Q15910 whole entry) above
# [6] = Toxicity in Balb/c nude mouse xenografted with human BXPC-3 cells assessed as effect on body weight at 60 mg/kg, ip administered daily for 30 days; format: organism-based; conditions: in vivo, 720 h, time 30 day
# BXPC-3 [7] = assay: Inhibition of colony formation in human BXPC-3 cells assessed as reduction in colony size at 2.5 uM incubated for 10 to 14 days by crystal violet staining based analysis; format: functional, cell-based; conditions: time 10-14 day
# BXPC-3 [8] = assay: Inhibition of colony formation in human BXPC-3 cells assessed as reduction in colony size at 0.1 to 2.5 uM incubated for 10 to 14 days in the presence of JQ1 by crystal violet staining based analysis; format: functional, cell-based; conditions: dose 0.1-2.5 µM, time 10-14 day
# MDA-MB-231 [9] = assay: Inhibition of colony formation in human MDA-MB-231 cells incubated for 10 to 14 days in the presence of JQ1 by crystal violet staining based analysis; format: functional, cell-based; conditions: dose 0.1-2.5 µM, time 10-14 day
# MDA-MB-231 [10] = assay: Induction of apoptosis in human MDA-MB-231 cells assessed as viable cells at 5 uM incubated for 48 hrs by Annexin V-FITC/PI staining based flow cytometric analysis (reference value: 97.63%); format: functional; conditions: read-out: Activity
# BXPC-3 [11] = assay: Inhibition of cell proliferation in human BXPC-3 cells assessed as decrease in c-Myc mRNA level at 5 uM incubated for 48 hrs by qRT-PCR analysis; format: functional, cell-based
# MDA-MB-231 [12] = assay: Inhibition of colony formation in human MDA-MB-231 cells assessed as reduction in colony size at 0.1 to 2.5 uM incubated for 10 to 14 days in the presence of JQ1 by crystal violet staining based analysis; format: functional, cell-based; conditions: dose 0.1-2.5 µM, time 10-14 day
# BXPC-3 [13] = assay: Inhibition of colony formation in human BXPC-3 cells incubated for 10 to 14 days in the presence of JQ1 by crystal violet staining based analysis; format: functional, cell-based; conditions: dose 0.1-2.5 µM, time 10-14 day
# BXPC-3 [14] = assay: Inhibition of cell proliferation in human BXPC-3 cells assessed as decrease in c-Myc protein level at 5 uM incubated for 48 hrs by IHC analysis; format: functional, cell-based
# MDA-MB-231 [15] = assay: Inhibition of cell proliferation in human MDA-MB-231 cells assessed as decrease in c-Myc protein level at 5 uM incubated for 48 hrs by IHC analysis; format: functional, cell-based
# BXPC-3 [16] = assay: Antitumor activity against human BXPC-3 cells xenografted in Balb/c nude mouse assessed as reduction in tumor growth at 60 mg/kg, ip administered daily for 30 days; format: functional, organism-based; conditions: time 30.0 day
# [17] = target: T1, Histone-lysine N-methyltransferase EZH2; assay: Inhibition of EZH2 in human BX-PC-3 cells assessed as decrease in H3K27me3 level at 5 uM by fluorescence based analysis; format: cell-based; conditions: BXPC-3
# Target sequence in this assay (Q15910 whole entry, looked up): as the sequence (Q15910 whole entry) above
# MDA-MB-231 [18] = assay: Induction of apoptosis in human MDA-MB-231 cells assessed as early apoptotic cells at 5 uM incubated for 48 hrs by Annexin V-FITC/PI staining based flow cytometric analysis (reference value: 0.69%); format: functional
# MDA-MB-231 [19] = assay: Induction of apoptosis in human MDA-MB-231 cells assessed as late apoptotic cells at 5 uM incubated for 48 hrs by Annexin V-FITC/PI staining based flow cytometric analysis (reference value: 1.06%); format: functional
# MDA-MB-231 [20] = assay: Inhibition of colony formation in human MDA-MB-231 cells assessed as reduction in colony size at 2.5 uM incubated for 10 to 14 days by crystal violet staining based analysis; format: functional, cell-based; conditions: time 10-14 day
# BXPC-3 [21] = assay: Inhibition of colony formation in human BXPC-3 cells assessed as reduction in number of cell colonies at 2.5 uM incubated for 10 to 14 days by crystal violet staining based analysis; format: functional; conditions: time 10-14 day
# MDA-MB-231 [22] = assay: Induction of apoptosis in human MDA-MB-231 cells assessed as necrotic cells at 5 uM incubated for 48 hrs by Annexin V-FITC/PI staining based flow cytometric analysis (reference value: 0.63%); format: functional
# BXPC-3 [23] = assay: Inhibition of colony formation in human BXPC-3 cells assessed as reduction in number of cell colony at 0.1 to 2.5 uM incubated for 10 to 14 days in the presence of JQ1 by crystal violet staining based analysis; format: functional; conditions: dose 0.1-2.5 µM, time 10-14 day
# Mus musculus [24] = assay: In vivo inhibition of EZH2 in Balb/c nude mouse xenografted with human BXPC-3 cells assessed as reduction in H3K27me3 level in tumor at 60 mg/kg, ip administered daily for 30 days by IHC analysis; format: functional, organism-based; conditions: time 30.0 day
# [25] = target: T1, Histone-lysine N-methyltransferase EZH2; assay: Inhibition of EZH2 in human BXPC-3 cells assessed as increase in H3K27ac level at 5 uM by fluorescence based analysis; format: cell-based
# Target sequence in this assay (Q15910 whole entry, looked up): as the sequence (Q15910 whole entry) above
# MDA-MB-231 [26] = assay: Inhibition of colony formation in human MDA-MB-231 cells assessed as reduction in number of cell colonies at 2.5 uM incubated for 10 to 14 days by crystal violet staining based analysis; format: functional; conditions: time 10-14 day
# [27] = target: T2, Histone-lysine N-methyltransferase EZH1 (Homo sapiens, UniProt Q92800); assay: Inhibition of EZH1 (unknown origin) by radiometric assay
# T2 sequence (Q92800 whole entry): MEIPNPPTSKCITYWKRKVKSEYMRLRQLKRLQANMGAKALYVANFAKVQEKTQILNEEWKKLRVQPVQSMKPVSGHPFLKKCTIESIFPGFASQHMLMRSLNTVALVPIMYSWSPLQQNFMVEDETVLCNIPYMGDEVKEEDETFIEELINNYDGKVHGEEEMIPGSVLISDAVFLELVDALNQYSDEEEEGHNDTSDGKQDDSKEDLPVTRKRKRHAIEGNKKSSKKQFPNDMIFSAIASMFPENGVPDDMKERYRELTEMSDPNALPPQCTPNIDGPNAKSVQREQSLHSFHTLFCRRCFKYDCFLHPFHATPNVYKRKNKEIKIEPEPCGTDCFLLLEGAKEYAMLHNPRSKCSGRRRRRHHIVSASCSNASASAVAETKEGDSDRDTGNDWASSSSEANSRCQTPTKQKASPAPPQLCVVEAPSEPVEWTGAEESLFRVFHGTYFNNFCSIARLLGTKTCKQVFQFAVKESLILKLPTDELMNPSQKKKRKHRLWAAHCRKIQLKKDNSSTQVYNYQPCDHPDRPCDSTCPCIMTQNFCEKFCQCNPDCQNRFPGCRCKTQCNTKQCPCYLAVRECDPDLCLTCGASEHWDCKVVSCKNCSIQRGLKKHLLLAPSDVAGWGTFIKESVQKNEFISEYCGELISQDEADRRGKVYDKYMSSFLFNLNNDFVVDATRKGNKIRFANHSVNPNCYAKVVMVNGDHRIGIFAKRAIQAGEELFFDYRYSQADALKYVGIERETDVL
# BXPC-3 [28] = assay: Induction of apoptosis in human BXPC-3 cells assessed as early apoptotic cells at 5 uM incubated for 48 hrs by Annexin V-FITC/PI staining based flow cytometric analysis (reference value: 3.28 %); format: functional
# BXPC-3 [29] = assay: Induction of apoptosis in human BXPC-3 cells assessed as necrotic cells at 5 uM incubated for 48 hrs by Annexin V-FITC/PI staining based flow cytometric analysis (reference value: 1.65 %); format: functional
# BXPC-3 [30] = assay: Induction of apoptosis in human BXPC-3 cells assessed as late apoptotic cells at 5 uM incubated for 48 hrs by Annexin V-FITC/PI staining based flow cytometric analysis (reference value: 4.38 %); format: functional
# [31] = target: T1, Histone-lysine N-methyltransferase EZH2; assay: Inhibition of EZH2 in human MDA-MB-231 cells assessed as decrease in H3K27me3 level at 5 uM by fluorescence based analysis; format: cell-based
# Target sequence in this assay (Q15910 whole entry, looked up): as the sequence (Q15910 whole entry) above
# MDA-MB-231 [32] = assay: Inhibition of colony formation in human MDA-MB-231 cells assessed as reduction in number of cell colonies at 0.1 to 2.5 uM incubated for 10 to 14 days in the presence of JQ1 by crystal violet staining based analysis; format: functional; conditions: dose 0.1-2.5 µM, time 10-14 day
# MDA-MB-231 [33] = assay: Inhibition of cell proliferation in human MDA-MB-231 cells assessed as decrease in c-Myc mRNA level at 5 uM incubated for 48 hrs by qRT-PCR analysis; format: functional, cell-based
smiles,measurement,setting,value
Cc1cc(C)c(CNC(=O)c2cc(-c3cn(C)c(=O)c4[nH]ccc34)cc3c2c(C)cn3CC2CCCCC2)c(=O)[nH]1,IC50,[1],> 300 nM
same,IC50,[2],12 nM
Cc1[nH]c(=O)c(CNC(=O)c2cc(-c3cn(C)c(=O)c4[nH]ccc34)cc3[nH]cc(C)c23)c2c1CCCC2,IC50,[1],> 300 nM
same,IC50,[2],> 100 nM
Cc1cc(C)c(CNC(=O)c2cc(-c3cn(C)c(=O)c4[nH]ccc34)cc3[nH]ccc23)c(=O)[nH]1,IC50,[1],> 300 nM
same,IC50,[2],83 nM
CCC(C)n1cc(C)c2c(C(=O)NCc3c(C)cc(C)[nH]c3=O)cc(-c3ccc(N4CCNCC4)nc3)cc21 (stereo unspecified),viability at 5 µM,BXPC-3 [3],91.9%
same,inhibition,Mus musculus [4],Active
same,inhibition,[5],Active
same,Activity,[6],Non-Toxic
same,inhibition,BXPC-3 [7],inactive
same,inhibition,BXPC-3 [8],Active
same,inhibition,MDA-MB-231 [9],Dose-Dependent Effect
same,viability at 5 µM,MDA-MB-231 [10],97%
same,inhibition,BXPC-3 [11],inactive
same,inhibition,MDA-MB-231 [12],Active
same,inhibition,BXPC-3 [13],Dose-Dependent Effect
same,inhibition,BXPC-3 [14],inactive
same,inhibition,MDA-MB-231 [15],inactive
same,Activity,BXPC-3 [16],inactive
same,inhibition,[17],Active
same,Activity,MDA-MB-231 [18],1.83%
same,Activity,MDA-MB-231 [19],0.92%
same,inhibition,MDA-MB-231 [20],inactive
same,inhibition,BXPC-3 [21],inactive
same,Activity,MDA-MB-231 [22],0.3%
same,inhibition,BXPC-3 [23],Active
same,inhibition,Mus musculus [24],Active
same,inhibition,[25],Active
same,inhibition,MDA-MB-231 [26],inactive
same,IC50,[27],124 nM
same,Activity,BXPC-3 [28],3.18%
same,Activity,BXPC-3 [29],0.98%
same,Activity,BXPC-3 [30],3.86%
same,inhibition,[31],Active
same,inhibition,MDA-MB-231 [32],Active
same,inhibition,MDA-MB-231 [33],inactive
Cc1cc(C)c(CNC(=O)c2cc(-c3cn(C)c(=O)c4[nH]ccc34)cc3[nH]cc(C)c23)c(=O)[nH]1,IC50,[1],> 300 nM
same,IC50,[2],> 100 nM
Cc1[nH]c(=O)c(CNC(=O)c2cc(-c3cn(C)c(=O)c4[nH]ccc34)cc3c2ccn3C2CCCC2)c2c1CCCC2,IC50,[1],> 300 nM
same,IC50,[2],8.3 nM
Cc1[nH]c(=O)c(CNC(=O)c2cc(-c3cn(C)c(=O)c4[nH]ccc34)cc3c2ccn3C(C)C)c2c1CCCC2,IC50,[1],> 300 nM
same,IC50,[2],12.3 nM
CCC(C)n1cc(C)c2c(C(=O)NCc3c4c(c(C)[nH]c3=O)CCCC4)cc(-c3cn(C)c(=O)c4[nH]ccc34)cc21 (stereo unspecified),IC50,[1],> 300 nM
same,IC50,[2],7.9 nM
Cc1[nH]c(=O)c(CNC(=O)c2cc(-c3cn(C)c(=O)c4[nH]ccc34)cc3c2cnn3C2CCCC2)c2c1CCCC2,IC50,[1],> 300 nM
same,IC50,[2],46 nM
Cc1[nH]c(=O)c(CNC(=O)c2cc(-c3cn(C)c(=O)c4[nH]ccc34)cc3c2c(C)cn3CC2CCCCC2)c2c1CCCC2,IC50,[1],> 300 nM
same,IC50,[2],> 100 nM
Cc1[nH]c(=O)c(CNC(=O)c2cc(-c3cn(C)c(=O)c4[nH]ccc34)cc3c2ccn3CC2CCCCC2)c2c1CCCC2,IC50,[1],> 300 nM
same,IC50,[2],80 nM
